Test results published in patent publication US20260295053A1, “COMPOUNDS FOR DEGRADATION AND INHIBITION OF KRAS (G12D) PROTEIN” (Shenzhen Ionova Life Science Co., Ltd., priority 2023, published 2026).

How the values were obtained:
KRAS (G12D) = target: T1, KRAS (G12D) (Homo sapiens, UniProt P01116, G12D); experiment: KRAS (G12D) cellular degradation assay in AsPC-1 cells; format: cell-based; details: 24 hours, antibody fluorescence (Odyssey CLX), DC50 half-maximal degradation concentration
T1 construct: in-cell western with KRAS G12D antibody after 24 h
Method in brief: (§1)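 Half-maximal degradation (DC50) and inhibition (IC50) concentrations are fitted from dose-response curves spanning […] to 1.5 nM final. KRAS G12D loss is measured by fluorescent antibody staining with β-actin reference after 24 h; growth is measured by ATP luminescence after a 6-day exposure.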

AsPC-1 cells = experiment: AsPC-1 cell proliferation assay (CellTiter Glo); format: cell-based; details: Homo sapiens, ASPC1, 144 h, 6 days
Method in brief: as §1

T1 sequence (P01116 1-188 isoform P01116-2 G12D): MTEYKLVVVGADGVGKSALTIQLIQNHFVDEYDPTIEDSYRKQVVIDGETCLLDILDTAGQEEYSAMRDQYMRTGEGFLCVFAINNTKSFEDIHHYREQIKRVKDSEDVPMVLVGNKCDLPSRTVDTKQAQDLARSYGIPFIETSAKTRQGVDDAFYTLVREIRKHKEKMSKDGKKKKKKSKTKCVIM

Question: Which results are given for `CO[C@H]1C[C@@H](Oc2nc(N3C[C@@H]4C[C@H]3CN4)c3cc(C4CC4)c(-c4c(C)c(F)cc5[nH]ncc45)c(OCc4ccc(-c5cn([C@H](C(=O)N6C[C@H](O)C[C@H]6C(=O)N[C@H](c6ccc(-c7scnc7C)cc6)[C@H](C)O)C(C)C)nn5)cc4)c3n2)C1` [Example 135, (2S,4R)-1-((2S)-2-(4-(4-(((4-((1S,4S)-2,5-diazabicyclo[2.2.1]heptan-2-yl)-6-cyclopropyl-7-(6-fluoro-5-methyl-1H-indazol-4-yl)-2-((1s,3R)-3-methoxycyclobutoxy)quinazolin-8-yl)oxy)methyl)phenyl)-1H-1,2,3-triazol-1-yl)-3-methylbutanoyl)-4-hydroxy-N-((1R,2S)-2-hydroxy-1-(4-(4-methylthiazol-5-yl)phenyl)propyl)purrolidine-2-carboxcamide]?
Answer: DC50 (KRAS (G12D)): < 10 nM; IC50 (AsPC-1 cells): < 10 nM

Question: Which DC50 (KRAS (G12D)) does the source give for `CCn1nccc1-c1ccc([C@@H](NC(=O)[C@@H]2C[C@@H](O)CN2C(=O)[C@H](C(C)C)n2cc(-c3ccc(COc4c(-c5c(C)c(F)cc6[nH]ncc56)c(C5CCC5)cc5c(N6C[C@@H]7C[C@H]6CN7)nc(O[C@H]6C[C@H](OC)C6)nc45)cc3)nn2)[C@H](C)O)cc1` [Example 136, (2S,4R)-1-((2S)-2-(4-(4-(((4-((1S,4S)-2,5-diazabicyclo[2.2.1]heptan-2-yl)-6-cyclobutyl-7-(6-fluoro-5-methyl-1H-indazol-4-yl)-2-((1r,3S)-3-methoxycyclobutoxy)quinazolin-8-yl)oxy)methyl)phenyl)-1H-1,2,3-triazol-1-yl)-3-methylbutanoyl)-N-((1R,2S)-1-(4-(1-ethyl-1H-pyrazol-5-yl)phenyl)-2-hydroxypropyl)-4-hydroxypyrrolidine-2-carboxamide] here?
Answer: < 10 nM

Question: And the IC50 (AsPC-1 cells)?
Answer: < 10 nM

Question: Which results are given for `Cc1ncsc1-c1ccc([C@@H](NC(=O)[C@@H]2C[C@@H](O)CN2C(=O)[C@H](C(C)C)n2cc(-c3ccc(COc4c(-c5c(C)c(F)cc6[nH]ncc56)c(C5CC5)cc5c(N6C[C@@H]7C[C@H]6CN7)nc(OC6CCOCC6)nc45)cc3)nn2)[C@@H](O)C2CC2)cc1` [Example 138, (2S,4R)-1-((2S)-2-(4-(4-(((4-((1S,4S)-2,5-diazabicyclo[2.2.1]heptan-2-yl)-6-cyclopropyl-7-(6-fluoro-5-methyl-1H-indazol-4-yl)-2-((tetrahydro-2H-pyran-4-yl)oxy)quinazolin-8-yl)oxy)methyl)phenyl)-1H-1,2,3-triazol-1-yl)-3-methylbutanoyl)-N-((1R,2S)-2-cyclopropyl-2-hydroxy-1-(4-(4-methylthiazol-5-yl)phenyl)ethyl)-4-hydroxypyrrolidine-2-carboxamide]?
Answer: DC50 (KRAS (G12D)): < 10 nM; IC50 (AsPC-1 cells): < 10 nM

Question: For `CC[C@H](O)[C@H](NC(=O)[C@@H]1C[C@@H](O)CN1C(=O)[C@H](C(C)C)n1cc(-c2ccc(COc3c(-c4c(C)c(F)cc5[nH]ncc45)c(C4CC4)cc4c(N5C[C@@H]6C[C@H]5CN6)nc(OC5CCOCC5)nc34)cc2)nn1)c1ccc(-c2scnc2C)cc1` [Example 139, (2S,4R)-1-((2S)-2-(4-(4-(((4-((1S,4S)-2,5-diazabicyclo[2.2.1]heptan-2-yl)-6-cyclopropyl-7-(6-fluoro-5-methyl-1H-indazol-4-yl)-2-((tetrahydro-2H-pyran-4-yl)oxy)quinazolin-8-yl)oxy)methyl)phenyl)-1H-1,2,3-triazol-1-yl)-3-methylbutanoyl)-4-hydroxy-N-((1R,2S)-2-hydroxy-1-(4-(4-methylthiazol-5-yl)phenyl)butyl)pyrrolidine-2-carboxamide], which DC50 (KRAS (G12D)) is on record?
Answer: < 10 nM

Question: What about the IC50 (AsPC-1 cells) of the same molecule?
Answer: < 10 nM
